Experimental findings from PubChem BioAssay AID1645865 (Buhrlage Lab, Dana-Farber Cancer Institute and Novartis …, 2021) are described below.

The source made the active and inactive calls.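 How the source made its calls: active means maximal inhibition of the USP30 enzyme reaching 30% or more across the dose series; inactive means the rest.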 Where only a bound is given, the exact number is not on record here.

This experiment deals with Ubiquitin carboxyl-terminal hydrolase 30 (Homo sapiens) (UniProt Q70CQ3). The experiment is described as follows: ubiquitin-specific protease 30 DUB inhibitors, concentration-effect, biochemical, validation of primary actives (AID 1645865). The conditions noted are these: purified USP30, Ub-rhodamine cleavage, fluorescence, 2 h.
Ubiquitin carboxyl-terminal hydrolase 30 (Homo sapiens), sequence (Q70CQ3 whole entry, looked up): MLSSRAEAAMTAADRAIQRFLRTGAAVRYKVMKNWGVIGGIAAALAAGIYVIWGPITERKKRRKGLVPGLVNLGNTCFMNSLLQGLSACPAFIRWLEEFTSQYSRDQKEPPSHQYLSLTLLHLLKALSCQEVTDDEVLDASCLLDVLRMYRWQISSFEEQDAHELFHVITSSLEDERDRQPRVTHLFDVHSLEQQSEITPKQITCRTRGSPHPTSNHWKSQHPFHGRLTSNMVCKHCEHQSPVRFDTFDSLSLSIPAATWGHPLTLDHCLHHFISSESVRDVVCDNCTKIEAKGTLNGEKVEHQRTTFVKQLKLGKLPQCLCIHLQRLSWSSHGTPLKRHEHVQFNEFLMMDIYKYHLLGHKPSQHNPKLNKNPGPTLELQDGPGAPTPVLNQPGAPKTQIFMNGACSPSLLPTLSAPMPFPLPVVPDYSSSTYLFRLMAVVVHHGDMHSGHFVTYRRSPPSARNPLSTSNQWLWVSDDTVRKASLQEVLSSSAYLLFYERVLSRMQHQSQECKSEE

The term IC50 denotes the point on the concentration scale where inhibition reaches its midpoint. As to `COc1ccc(NS(=O)(=O)c2ccc(NC(=O)Nc3ccc(Cl)cc3)cc2)cc1`, the IC50 was 18.3 µM. `COc1ccc2cc3c(nc2c1)OC(=O)N(CCc1cccc(F)c1)C3`: the IC50 is 0.0686 µM. For the compound `C[C@@H]1O[C@@H](O[C@H]2[C@H](O[C@H]3[C@H](O[C@H]4CC[C@@]5(C)[C@@H](CC[C@]6(C)[C@@H]5CC=C5[C@@H]7CC(C)(C)CC(=O)[C@]7(C)CC[C@]56C)[C@@]4(C)CO)O[C@H](C(=O)O)[C@@H](O)[C@@H]3O)OC[C@@H](O)[C@@H]2O)[C@H](O)[C@H](O)[C@H]1O`, the IC50 was > 50 µM (inactive).

As to `CNC(=O)c1cc2nc(N(C)C)n(-c3ccccc3)c2s1`, the IC50 was > 50 µM (inactive).

For the compound `CSc1nccc(-c2ccc(F)cc2)c1C#N`, the IC50 was 36.3 µM. `COc1ccc(CNC(=O)CCc2nnc3n(Cc4ccccc4Cl)c(=O)c4ccccc4n23)cc1`: the IC50 is 2.65 µM. Turning to `COCCCNC(=O)c1ccc(Cn2c(=O)c3ccccc3n(CC(=O)NC3CCCCC3)c2=O)cc1`, the 50% inhibitory concentration (IC50) is 24.8 µM. With `COC(=O)C1C(c2ccc(Cl)cc2Cl)C2(C(=O)c3ccccc3C2=O)C2C=Cc3ccccc3N12` (stereo unspecified), the IC50 was > 50 µM (inactive). As for `COc1c(C)c(C(O)C(C)O)c2[nH]c3ccc(CC=C(C)C)cc3c2c1O` (stereo unspecified), the IC50 is 27.4 µM.

With `CCOC(=O)c1ccc(NC(=O)Cn2c(=O)n(CC(=O)NCCc3ccc(OC)c(OC)c3)c(=O)c3sccc32)cc1`, the IC50 was 1.57 µM. Take `CSc1ccccc1C(=O)Nc1nc(-c2ccncc2)cs1`: the IC50 is 23.3 µM. In the case of `CCC(CC)n1[nH]c(=O)c2c1NC(=O)CSC2c1ccc2c(c1)OCO2` (stereo unspecified), the IC50 is 16.7 µM.

On to `Cc1cccc(NC(=O)Cn2c(=O)n(Cc3ccc(F)cc3)c(=O)c3sccc32)c1`, for which the IC50 was 2.74 µM. `Cc1ccc(NC(=O)c2cc(=O)n(C)c3c2c(=O)n(C)c(=O)n3C)c(C)c1`: the IC50 is > 50 µM (inactive). For the compound `Cc1ccc2c(c1)c(=O)c(C(=O)c1ccccc1)cn2CC(=O)Nc1ccc2c(c1)OCCO2`, the IC50 is 2.6 µM. As for `CC[C@H](C)C[C@H]1CC[C@](O)([C@](C)(O)C(=O)N[C@@H]2C(=O)N3NCCC[C@@H]3C(=O)N(O)[C@@H](C)C(=O)NCC(=O)N3NCCC[C@H]3C(=O)N(O)[C@H](C)C(=O)O[C@H]2C(C)C)O[C@@H]1C`, the IC50 was 2.09 µM. As for `CC12c3ccc4c(c3C(=O)c3occ(c31)C(=O)CC2O)CCC4=O` (stereo unspecified), the IC50 was > 50 µM (inactive). As for `Cc1cccc(NC(=O)Cn2cnc(-c3noc(-c4ccccc4)n3)c2)c1C`, the figure is 1.24 µM; as for `O=c1c2ccccc2c(-c2nc(-c3ccncc3)no2)cn1-c1ccccc1`, 2.54 µM. Consider `CC(C)(C)n1ncc2c(=O)n(Cc3cccc([N+](=O)[O-])c3)cnc21`, for which the IC50 was > 50 µM (inactive). As to `O=C(NCc1ccc2c(c1)OCO2)c1cc2c(s1)-c1ccccc1OC2`, the IC50 was 3.58 µM. With `O=C(NCc1ccc2c(c1)OCO2)c1nc(-c2ccccc2)n(-c2ccccc2)n1`, the IC50 was > 50 µM (inactive). On to `CCOC(=O)c1ccc(S(=O)(=O)N2CCC(C(=O)OC(C)C(=O)Nc3cccc([N+](=O)[O-])c3)CC2)cc1` (stereo unspecified), for which the IC50 is 2.51 µM. As for `Cn1nc(-c2ccccc2)c(COC(=O)c2ccc([N+](=O)[O-])cc2)c1Cl`, the figure is 23.4 µM; as for `COc1ccc(C(=O)NCC(c2ccc3c(c2)CCCN3C)N2CCCC2)cc1` (stereo unspecified), > 50 µM (inactive). As for `COC(=O)c1sccc1NC(=O)COc1ccsc1C(=O)OC`, the IC50 was 27.9 µM. On to `Cc1ccn(-c2ccc(NC(=O)c3ccccc3Sc3ccccc3C#N)cc2)n1`, for which the IC50 was 34.9 µM. For `COC(=O)C1C(c2ccc(OC)cc2)C2(C(=O)c3ccccc3C2=O)C2C=Cc3ccccc3N12` (stereo unspecified), the IC50 is > 50 µM (inactive). For `c1ccc(-n2nnc(-c3noc(-c4ccccn4)n3)c2-c2ccncc2)cc1`, the concentration for half-maximal inhibition (IC50) was 25.4 µM.

On to `CCc1cccc(CC)c1NC(=O)COC(=O)c1cc2cccc(OC)c2oc1=O`, for which the IC50 is 39.5 µM.

With `CC(CCc1ccccc1)NC(=O)C(=O)c1cn(CC(=O)N2CCOCC2)c2ccccc12` (stereo unspecified), the IC50 was > 50 µM (inactive).
